# Experimental data from patent US5470854A, “2-phenylbenzo[B]furans, process for their manufacture and pharmaceutical preparations containing them” (Schering Aktiengesellschaft, priority 1991, dated 1995).
# Key:
# oestrogen receptor = target: T1, oestrogen receptor (Bos taurus, UniProt P49884); assay: Relative bonding affinity to the oestrogen receptor (competition with 3H-17β-Estradiol); format: binding, calf; conditions: for RBA* (relative bonding affinity to the oestrogen receptor): calves' uteri, in relation to 17β-estradiol = 100
# T1 construct: oestrogen receptor of a calf's uterus; from tissue; host or cells: calf uterus
# T1 sequence (P49884 1-596): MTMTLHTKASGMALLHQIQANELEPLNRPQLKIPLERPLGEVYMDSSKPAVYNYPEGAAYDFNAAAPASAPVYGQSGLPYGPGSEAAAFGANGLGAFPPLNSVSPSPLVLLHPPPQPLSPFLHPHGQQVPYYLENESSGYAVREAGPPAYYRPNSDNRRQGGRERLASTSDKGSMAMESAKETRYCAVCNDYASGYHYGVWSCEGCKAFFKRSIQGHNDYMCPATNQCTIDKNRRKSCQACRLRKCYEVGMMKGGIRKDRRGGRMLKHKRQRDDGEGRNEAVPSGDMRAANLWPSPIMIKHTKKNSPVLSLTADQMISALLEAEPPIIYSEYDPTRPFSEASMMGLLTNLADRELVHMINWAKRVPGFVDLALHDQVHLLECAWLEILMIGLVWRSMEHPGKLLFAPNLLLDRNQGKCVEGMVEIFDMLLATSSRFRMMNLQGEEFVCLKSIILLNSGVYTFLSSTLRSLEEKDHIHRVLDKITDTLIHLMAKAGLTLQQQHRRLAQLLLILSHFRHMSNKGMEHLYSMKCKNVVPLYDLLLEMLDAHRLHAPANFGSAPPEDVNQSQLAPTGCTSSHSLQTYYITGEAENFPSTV
# From the text: The test methodology is described in Cancer Treatment Reviews 1984, 11, 147.
# *Relative bonding affinities to the oestrogen receptor of calves' uteri,
# in relation to 17β-estradiol = 100
# uterus of infantile mice [1] = assay: Anti-uterotrophic test (in-vivo test on infantile mice); conditions: simultaneous 0.4 μg oestron/animal/day; for anti-uterotrophic test, effect: uterus dry weight (mg)/body weight (g) × 100
# Method: (§1) The effectiveness of these compounds was found in an in-vivo test on infantile mice. This test is extensively described in Cancer Treatment Reviews 1984, 11, 147, and J. Med. Chem., 1984, 27, 1439.
# (§2) ^a dosage/animal, administered s.c. on three consecutive days in oliv
# (§3) ^b uterus dry weight (mg)/body weight (g) × 100, determined 24
# (§4) hours after the final injection.
# ^c simultaneous administration of 0.4 μg oestron/animal/day.
# [2] = system: human MCF-7 mamma carcinoma cells; assay: Effect on cell growth of MCF-7 cells; format: cell-based; conditions: for activity at 10 µM / activity at 1 µM / activity at 0.1 µM / activity at 5 µM: Homo sapiens, MCF7, mean of 16 individual results, read-out: T/C (corrected); for activity at 10 µM: 1 × 10^-5 M; for activity at 1 µM: 1 × 10^-6 M; for activity at 0.1 µM: 1 × 10^-7 M; for activity at 5 µM: 5 × 10^-6 M
# uterus of infantile mice [3] = assay: Uterotrophic test (in-vivo test on infantile mice); conditions: uterus dry weight (mg)/body weight (g) × 100
# Method: as §1, §2, §3, §4
# [4] = 1 μg/animal s.c. on three consecutive days
# [5] = 5 μg/animal s.c. on three consecutive days
# [6] = 25 μg/animal s.c. on three consecutive days
# [7] = 125 μg/animal s.c. on three consecutive days
Compound,RBA* (relative bonding affinity to the oestrogen receptor) (oestrogen receptor),"anti-uterotrophic test, inhibition (uterus of infantile mice [1]; 5 μg/animal s.c.) [%]","anti-uterotrophic test, inhibition (uterus of infantile mice [1]; 25 μg/animal s.c.) [%]","anti-uterotrophic test, effect (uterus of infantile mice [1]; 5 μg/animal s.c.) [mg/g × 100]","anti-uterotrophic test, effect (uterus of infantile mice [1]; 25 μg/animal s.c.) [mg/g × 100]","anti-uterotrophic test, effect (uterus of infantile mice [1]; 125 μg/animal s.c.) [mg/g × 100]",activity at 10 µM [2] [%],activity at 1 µM [2] [%],activity at 0.1 µM [2] [%],activity at 5 µM [2] [%],"uterotrophic test, effect (uterus of infantile mice [3]; [4]) [mg/g × 100]","uterotrophic test, effect (uterus of infantile mice [3]; [5]) [mg/g × 100]","uterotrophic test, effect (uterus of infantile mice [3]; [6]) [mg/g × 100]","uterotrophic test, effect (uterus of infantile mice [3]; [7]) [mg/g × 100]","affinity to the oestrogen (estradiol) receptor, in words (oestrogen receptor)","anti-uterotrophic test, effect (uterus of infantile mice [1]; 1 μg/animal s.c.) [mg/g × 100]","effect on the growth of MCF-7 / hormone-dependent tumour cells, in words [2]","anti-uterotrophic test, inhibition (uterus of infantile mice [1]; 125 μg/animal s.c.) [%]"
"Oc1ccc(-c2oc3cc(O)ccc3c2CCCCCCN2CCCCC2)cc1 [Compound 68b, 6-hydroxy-2-(4-hydroxyphenyl)-3-(6-N-piperidylhexyl)benzo[b]furan]","5,4",10,7,58.6 ± 7.1,59.9 ± 6.6,68.7 ± 9.9,-9.6 ± 2.9,42.9 ± 7.7,58.7 ± 17.1,12.1 ± 5.4,18.3 ± 1.9,18.8 ± 3.0,24.4 ± 3.8,21.4 ± 3.7,–,–,–,–
"CCc1c(-c2ccc(O)cc2)oc2ccc(O)cc12 [Compound 62a, 3-ethyl-5-hydroxy-2-(4-hydroxyphenyl)benzo[b]furan]","15,7",10,22,39.1 ± 4.2,35.6 ± 2.6,–,-0.2 ± 2.9,49 ± 12.6,65 ± 13.5,0.3 ± 3.8,10.5 ± 1.9,14.6 ± 2.4,19.0 ± 4.4,–,greatest affinity in relation to estradiol,44.2 ± 7.8,strongly inhibiting effect,–
"CCCc1c(-c2ccc(O)cc2)sc2ccc(O)cc12 [Compound 106a, 5-hydroxy-2-(4-hydroxyphenyl)-3-propylbenzo[b]thiophen]","21,9",27,–,34.4 ± 7.1,48.0 ± 4.2,48.8 ± 4.1,0.3 ± 3.5,35 ± 10.4,77.1 ± 21.4,2.3 ± 4.1,25.4 ± 6.2,32.7 ± 5.0,35.3 ± 7.5,51.2 ± 9.9,greatest affinity in relation to estradiol,–,strongly inhibiting effect,–
"Oc1ccc(-c2oc3ccc(O)cc3c2CCCCCCN2CCCCC2)cc1 [Compound 68a, 5-hydroxy-2-(4-hydroxyphenyl)-3-(6-N-piperidylhexyl)benzo[b]furan]","4,3",55,56,38.1 ± 7.5,37.6 ± 6.2,41.8 ± 6.4,-9.9 ± 1.8,51.6 ± 10.2,64.4 ± 12,10.4 ± 4.8,16.1 ± 2.1,17.3 ± 2.9,15.8 ± 1.9,17.3 ± 3.2,–,–,strongly inhibiting effect,48
"Oc1ccc(-c2sc3cc(O)ccc3c2CCCCCCN2CCCCC2)cc1 [Compound 119b, 6-hydroxy-2-(4-hydroxyphenyl)-3-(6-N-piperidinylhexyl)benzo[b]thiophen]","7,1",73,65,26.1 ± 5.4,22.8 ± 2.6,30.0 ± 5.6,-13.5 ± 3.2,48.1 ± 12.4,18.8 ± 7.2,2 ± 3.6,19.8 ± 3.1,20.7 ± 5.0,19.4 ± 2.1,34.2 ± 9.5,–,–,strongly inhibiting effect,61
